What follows are molecules tested on phospho-GSK-3β (assay: GSK 3b assay: Zn ionophore-enhanced phosphorylation of GSK-3β (AlphaScreen SureFire Phospho-GSK 3β (Ser9) kit) in SH-SY5Y cells). Conditions: test compound 2 μM + ZnCl2 5 μM, 2 h at 37° C.
Assay type: cell-based, human
Protocol: The phosphorylation of GSK-3β is enhanced when Zn is imported into a cell by a Zn ionophore. This property was measured for the compounds of the current invention and the data presented relative to the know Zn ionophore PBT2 using the following protocol.
The human neuroblastoma SH-SY5Y cells were obtained from Cell bank Australia (Catalogue number: 94030304). SH-SY5Y cell culture was maintained in DMEM/F12+15% FBS inside an incubator at 37° C. in the presence of 5% CO2. The cells were sub-cultured once a week and the media exchanged once during the week. Cells for the assay were plated at a density of 60,000 cells/well.
Stock solutions of the samples were prepared as a 5 mM stock in DMSO and a stock solution of 1 mM ZnCl2/3 mM Glutamic acid was prepared in water. Immediately before use the compounds were diluted 1:10 with water before being added to Locke's buffer in a treatment tube. Samples were subsequently treated with either distilled water or the ZnCl2/Glutamic acid solution to yield a treatment solution which has a final concentration of the test compound at 2 μM+/−ZnCl2 at 5 μM.
The culture media was aspirated from the wells and the media replaced with the treatment solution prepared above. In addition to the relative standard (PBT2+/−ZnCl2), control wells were also included consisting of +/−ZnCl2 at 5 μM with all treatments done in triplicate. The plate was incubated at 37° C. with the treatment solution for 2 h after which time the wells were aspirated and washed with sterile PBS.
Measurement of the change of phospho-GSK-3β was determined using an AlphaScreen® SureFire® Phospho-GSK […] (Ser9) Kit with the cells being processed as per the manufacturer's instructions using an initial incubation of 2 h/24° C. and a final incubation of 16 h/24° C.
The fluorescence was measured on an Enspire plate reader. […] Representative data is presented in Table 12 using the following ranges: A<50%, B 50-<100%, C 100-<150%, D>150%.
In the case of `Cc1cccc(C(=NNC(=O)c2cc(Cl)ccc2O)c2cccc(C)n2)n1` [Compound 128], the “GSK-Zn (signal as % of the positive standard PBT2+ZnCl2)” value is reported as “D (D>150%)”. With `C/C(=N\NC(=O)c1cccc(C)c1O)c1ccc(C)s1` [Compound 103] the “GSK-Zn (signal as % of the positive standard PBT2+ZnCl2)” value was “B (B 50-<100%)”. In the case of `Cc1cccc(C(=NNC(=O)c2ccccc2F)c2cccc(C)n2)n1` [Compound 134], the “GSK-Zn (signal as % of the positive standard PBT2+ZnCl2)” value is reported as “B (B 50-<100%)”. `COc1cc(C(=O)N/N=C(\C)c2ccc3ccccc3n2)ccc1O` [Compound 87] was tested, and the “GSK-Zn (signal as % of the positive standard PBT2+ZnCl2)” value was “C (C 100-<150%)”. With `C/C(=N\NC(=O)c1ccccc1O)c1ccc2ccccc2n1` [Compound 76] the “GSK-Zn (signal as % of the positive standard PBT2+ZnCl2)” value was “C (C 100-<150%)”. With `COc1cccc(C(=O)N/N=C(\C)c2cccc(C)n2)c1` [Compound 64] the “GSK-Zn (signal as % of the positive standard PBT2+ZnCl2)” value was “B (B 50-<100%)”. In the case of `C/C(=N\NC(=O)c1cc2ccccc2s1)c1cc(C)ccn1` [Compound 72], the “GSK-Zn (signal as % of the positive standard PBT2+ZnCl2)” value is reported as “C (C 100-<150%)”. With `Cc1cccc(C(=O)N/N=C\c2nc(C)c(C)s2)c1` [Compound 106] the “GSK-Zn (signal as % of the positive standard PBT2+ZnCl2)” value was “A (A<50%)”. With `O=C(N/N=C/c1nc2ccccc2s1)c1cc(Cl)ccc1O` [Compound 115] the “GSK-Zn (signal as % of the positive standard PBT2+ZnCl2)” value was “A (A<50%)”. For `O=C(N/N=C1\CCCc2cccnc21)c1cccc(Cl)c1` [Compound 16], the “GSK-Zn (signal as % of the positive standard PBT2+ZnCl2)” value was “A (A<50%)”. `C/C(=N\NC(=O)c1cccc(C)c1O)c1ccc2ccccc2n1` [Compound 82] was tested, and the “GSK-Zn (signal as % of the positive standard PBT2+ZnCl2)” value was “C (C 100-<150%)”. With `C/C(=N\NC(=O)c1ccccc1O)c1nc2ccccc2s1` [Compound 104] the “GSK-Zn (signal as % of the positive standard PBT2+ZnCl2)” value was “D (D>150%)”. In the case of `O=C(N/N=C1\CCCc2cccnc21)c1ccc(C(F)(F)F)cc1` [Compound 20], the “GSK-Zn (signal as % of the positive standard PBT2+ZnCl2)” value is reported as “A (A<50%)”. With `COc1cc(C(=O)NN=C(c2cccc(C)n2)c2cccc(C)n2)ccc1O` [Compound 130, N′-(bis(6-Methylpyridin-2-yl)methylene)-4-hydroxy-3-methoxybenzohydrazide] the “GSK-Zn (signal as % of the positive standard PBT2+ZnCl2)” value was “A (A<50%)”. For `C/C(=N\NC(=O)c1snnc1C)c1cc(C)ccn1` [Compound 73], the “GSK-Zn (signal as % of the positive standard PBT2+ZnCl2)” value was “C (C 100-<150%)”. With `C/C(=N\NC(=O)c1cccc(C)c1O)c1cccc(C)n1` [Compound 65] the “GSK-Zn (signal as % of the positive standard PBT2+ZnCl2)” value was “B (B 50-<100%)”. In the case of `Cc1ccccc1C(=O)N/N=C1\CCCc2cccnc21` [Compound 18], the “GSK-Zn (signal as % of the positive standard PBT2+ZnCl2)” value is reported as “B (B 50-<100%)”. `C/C(=N\NC(=O)c1cc(Cl)ccc1O)c1ccc2ccccc2n1` [Compound 92] was tested, and the “GSK-Zn (signal as % of the positive standard PBT2+ZnCl2)” value was “C (C 100-<150%)”. `Cc1cccc(C(=O)N/N=C/c2nccs2)c1O` [Compound 119] was tested, and the “GSK-Zn (signal as % of the positive standard PBT2+ZnCl2)” value was “A (A<50%)”. `COc1ccc(C(=O)N/N=C2/c3ncccc3CCC2(C)C)cc1OC` [Compound 26] was tested, and the “GSK-Zn (signal as % of the positive standard PBT2+ZnCl2)” value was “A (A<50%)”. With `COc1ccc(C(=O)N/N=C2\CCc3cccnc32)cc1OC` [Compound 38, (E)-N′-(5H-Cyclopenta[b]pyridin-7(6H)-ylidene)-3,4-dimethoxybenzohydrazide] the “GSK-Zn (signal as % of the positive standard PBT2+ZnCl2)” value was “A (A<50%)”. For `O=C(N/N=C1\CCCc2cccnc21)c1cc(Cl)ccc1O` [Compound 11], the “GSK-Zn (signal as % of the positive standard PBT2+ZnCl2)” value was “C (C 100-<150%)”. With `CC/C(=N\NC(=O)c1cccc(C)c1)c1ncccn1` [Compound 44] the “GSK-Zn (signal as % of the positive standard PBT2+ZnCl2)” value was “B (B 50-<100%)”. For `O=C(N/N=C1\CCCc2cccnc21)c1cc2ccccc2s1` [Compound 24], the “GSK-Zn (signal as % of the positive standard PBT2+ZnCl2)” value was “A (A<50%)”. `CC/C(=N\NC(=O)c1cccc(OC)c1)c1ncccn1` [Compound 45] was tested, and the “GSK-Zn (signal as % of the positive standard PBT2+ZnCl2)” value was “C (C 100-<150%)”. `COc1cccc(C(=O)N/N=C(\C)c2ccc3ccccc3n2)c1` [Compound 78] was tested, and the “GSK-Zn (signal as % of the positive standard PBT2+ZnCl2)” value was “C (C 100-<150%)”. In the case of `Cc1cccc(C(=NNC(=O)c2cccc(C)c2O)c2cccc(C)n2)n1` [Compound 129], the “GSK-Zn (signal as % of the positive standard PBT2+ZnCl2)” value is reported as “C (C 100-<150%)”. For `O=C(N/N=C1\CCCc2cccnc21)c1ccccc1O` [Compound 12, (E)-N′-(6,7-dihydroquinolin-8(5H)-ylidene)-2-hydroxybenzohydrazide], the “GSK-Zn (signal as % of the positive standard PBT2+ZnCl2)” value was “B (B 50-<100%)”. With `C/C(=N\NC(=O)c1cccc(C)c1O)c1nc2ccccc2s1` [Compound 105] the “GSK-Zn (signal as % of the positive standard PBT2+ZnCl2)” value was “B (B 50-<100%)”. With `C/C(=N\NC(=O)c1cccc(C)c1)c1ccc2ccccc2n1` [Compound 81] the “GSK-Zn (signal as % of the positive standard PBT2+ZnCl2)” value was “C (C 100-<150%)”. `COc1ccc(C(=O)N/N=C(\C)c2ccc3ccccc3n2)cc1OC` [Compound 77] was tested, and the “GSK-Zn (signal as % of the positive standard PBT2+ZnCl2)” value was “C (C 100-<150%)”. `Cl.O=C(N/N=C1\CCCc2cccnc21)c1ccccc1OCCN1CCCC1` [Compound 41, (E)-N′-(6,7-Dihydroquinolin-8(5H)-ylidene)-2-(2-(pyrrolidin-1-yl)ethoxy)benzohydrazide hydrochloride] was tested, and the “GSK-Zn (signal as % of the positive standard PBT2+ZnCl2)” value was “A (A<50%)”. For `C/C(=N\NC(=O)c1cc2ccccc2s1)c1ccccn1` [Compound 146, (E)-N′-(1-(Pyridin-2-yl)ethylidene)benzo[b]thiophene-2-carbohydrazide], the “GSK-Zn (signal as % of the positive standard PBT2+ZnCl2)” value was “C (C 100-<150%)”. In the case of `COc1cccc(C(=O)NN=C(c2cccc(C)n2)c2cccc(C)n2)c1` [Compound 131], the “GSK-Zn (signal as % of the positive standard PBT2+ZnCl2)” value is reported as “B (B 50-<100%)”. For `Cc1cccc(C(=O)NN=C(c2cccc(C)n2)c2cccc(C)n2)c1` [Compound 133], the “GSK-Zn (signal as % of the positive standard PBT2+ZnCl2)” value was “C (C 100-<150%)”. `Cc1cccc(C(=NNC(=O)c2ccccn2)c2cccc(C)n2)n1` [Compound 135] was tested, and the “GSK-Zn (signal as % of the positive standard PBT2+ZnCl2)” value was “B (B 50-<100%)”. In the case of `Cc1cccc(C(=O)N/N=C(/c2ncccn2)C(C)C)c1` [Compound 51], the “GSK-Zn (signal as % of the positive standard PBT2+ZnCl2)” value is reported as “B (B 50-<100%)”. For `C/C(=N\NC(=O)c1cc(Cl)ccc1O)c1nc(C)cs1` [Compound 95], the “GSK-Zn (signal as % of the positive standard PBT2+ZnCl2)” value was “C (C 100-<150%)”. `COc1ccc(Cl)cc1C(=O)N/N=C1\CCCc2cccnc21` [Compound 17] was tested, and the “GSK-Zn (signal as % of the positive standard PBT2+ZnCl2)” value was “A (A<50%)”. `CCOc1cccc(C(=O)NN=C(c2cccc(C)n2)c2cccc(C)n2)c1` [Compound 132] was tested, and the “GSK-Zn (signal as % of the positive standard PBT2+ZnCl2)” value was “C (C 100-<150%)”. With `CC/C(=N\NC(=O)c1cccc(C)c1O)c1ncccn1` [Compound 46] the “GSK-Zn (signal as % of the positive standard PBT2+ZnCl2)” value was “C (C 100-<150%)”. In the case of `C/C(=N\NC(=O)c1ccccc1C)c1cc(C)ccn1` [Compound 74], the “GSK-Zn (signal as % of the positive standard PBT2+ZnCl2)” value is reported as “B (B 50-<100%)”. In the case of `C/C(=N\NC(=O)c1ccccc1Cl)c1cccc(C)n1` [Compound 67], the “GSK-Zn (signal as % of the positive standard PBT2+ZnCl2)” value is reported as “C (C 100-<150%)”. In the case of `COc1ccc(C(=O)NN=C(c2cccc(C)n2)c2cccc(C)n2)cc1OC` [Compound 126], the “GSK-Zn (signal as % of the positive standard PBT2+ZnCl2)” value is reported as “C (C 100-<150%)”. With `C/C(=N\NC(=O)c1ccccc1O)c1nc(C)cs1` [Compound 94] the “GSK-Zn (signal as % of the positive standard PBT2+ZnCl2)” value was “C (C 100-<150%)”. For `COc1cc(C(=O)N/N=C2\CCCc3cccnc32)ccc1O` [Compound 21], the “GSK-Zn (signal as % of the positive standard PBT2+ZnCl2)” value was “A (A<50%)”. In the case of `Cc1cccc(C(=O)N/N=C\c2cn3ccccc3n2)c1` [Compound 121], the “GSK-Zn (signal as % of the positive standard PBT2+ZnCl2)” value is reported as “A (A<50%)”. `Cc1cccc(C(=NNC(=O)c2ccc(N(C)C)cc2)c2cccc(C)n2)n1` [Compound 123] was tested, and the “GSK-Zn (signal as % of the positive standard PBT2+ZnCl2)” value was “C (C 100-<150%)”. `CC/C(=N\NC(=O)c1snnc1C)c1ncccn1` [Compound 43, (E)-4-Methyl-N′-(1-(pyrimidin-2-yl)propylidene)-1,2,3-thiadiazole-5-carbohydrazide] was tested, and the “GSK-Zn (signal as % of the positive standard PBT2+ZnCl2)” value was “C (C 100-<150%)”.

Source: patent US11603364B2, “Acyl hydrazone derivative compounds for treating disease” (Alterity Therapeutics Limited, priority 2020, dated 2023)
